Data published in ChEMBL document CHEMBL6120994, “Unravelling the potential of natural chelating agents in the control of Staphylococcus aureus and Pseudomonas aeruginosa biofilms” (Eur J Med Chem, 2025).
≈ marks a conversion by molar mass, not a printed value.

Key:
[1] = Metal chelating activity assessed as compound-Fe(III) complex formation by measuring RhB degradation in MgO2/Fe(III) system measured within 30 mins by UV-Visible spectrophotometry
Staphylococcus aureus [2] = assay: Antibacterial activity against Staphylococcus aureus CECT 976 assessed as inhibition of bacterial growth incubated for 24 hrs by broth microdilution method; type: functional
Staphylococcus aureus [3] = assay: Bactericidal activity against Staphylococcus aureus CECT 976 assessed as bacterial killing incubated in MHB for 24 hrs and measured following culturing on agar plate for 24 hrs; type: functional; conditions: time 48 hrs
Pseudomonas aeruginosa [4] = assay: Antibacterial activity against Pseudomonas aeruginosa ATCC 10145 assessed as inhibition of bacterial growth incubated for 24 hrs by broth microdilution method; type: functional
Pseudomonas aeruginosa [5] = assay: Bactericidal activity against Pseudomonas aeruginosa ATCC 10145 assessed as bacterial killing incubated in MHB for 24 hrs and measured following culturing on agar plate for 24 hrs; type: functional; conditions: time 48 hrs

Row | SMILES | Activity [1] [%] | MIC (Staphylococcus aureus [2]) [µg/mL] | MBC (Staphylococcus aureus [3]) [µg/mL] | MIC (Pseudomonas aeruginosa [4]) [µg/mL] | MBC (Pseudomonas aeruginosa [5]) [µg/mL]
1 | O=C(O)CN(CCN(CC(=O)O)CC(=O)O)CC(=O)O | 25.8 | – | – | – | –
2 | O=C(O)CC(O)(CC(=O)O)C(=O)O | 42.3 | – | – | – | –
3 | NC[C@H]1O[C@H](O[C@H]2[C@H](O)[C@@H](O[C@H]3O[C@H](CO)[C@@H](O)[C@H](N)[C@H]3O)[C@H](N)C[C@@H]2N)[C@H](N)C[C@@H]1O [TOBRAMYCIN] | – | 4 (≈ 8.56 µM) | 4 (≈ 8.56 µM) | 8 (≈ 17.1 µM) | 16 (≈ 34.2 µM)
4 | O=C(O)[C@@H](O)[C@H](O)C(=O)O | 98.5 | – | – | – | –
5 | O=C(O)c1cn(C2CC2)c2cc(N3CCNCC3)c(F)cc2c1=O [CIPROFLOXACIN] | – | – | 8 (≈ 24.1 µM) | 32 (≈ 96.6 µM) | 32 (≈ 96.6 µM)
6 | O=C(O)C(=O)O | 48.9 | – | – | – | –
